PubChem BioAssay AID180 (DTP/NCI, 2004)
Values joined by “and” are separate entries in the source; they are usually repeats but may differ in a detail not shown here. Equal values may be shown once.

Tested on: BDF1 mice, Adenocarcinoma 755 s.c., tumor weight T/C
Assay: NCI In Vivo Anticancer Drug Screen. Data for tumor model Adenocarcinoma 755 (subcutaneous) in B6D2F1 (BDF1) mice
Conditions: endpoint: mean tumor weight, higher = larger tumour
Method in brief: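 Tumor-bearing mice receive test compound while controls get vehicle alone. Antitumor effect is scored from survival or tumor dimensions as a T/C quotient.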

[1] = dose: 15.0 mg/kg/injection, schedule: Q01DX011 (ip), vehicle: carboxymethylcellulose (CMC)
[2] = dose: 25.0 mg/kg/injection, schedule: Q01DX011 (ip), vehicle: carboxymethylcellulose (CMC)
[3] = dose: 100.0 mg/kg/injection, schedule: Q01DX011 (ip), vehicle: carboxymethylcellulose (CMC)
[4] = dose: 8.0 mg/kg/injection, schedule: Q01DX011 (ip), vehicle: carboxymethylcellulose (CMC)
[5] = dose: 37.5 mg/kg/injection, schedule: Q01DX011 (ip), vehicle: methylcellulose (MC)
[6] = dose: 150.0 mg/kg/injection, schedule: Q01DX011 (ip), vehicle: methylcellulose (MC)

With `CC(=O)[C@H]1CC[C@H]2[C@@H]3CCC4=CC(=O)[C@H](C)C[C@]4(C)[C@@]3(F)C(=O)C[C@]12C` the T/C (dose: 1.5 mg/kg/injection, schedule: Q01DX011 (sc), vehicle: steriod suspending solution) was 120 % of control, the T/C (dose: 3.12 mg/kg/injection, schedule: Q01DX011 (sc), vehicle: steriod suspending solution) was 77 % of control and the T/C (dose: 6.0 mg/kg/injection, schedule: Q01DX011 (sc), vehicle: steriod suspending solution) was 69 % of control. For the same molecule, the T/C (dose: 6.25 mg/kg/injection, schedule: Q01DX011 (sc), vehicle: steriod suspending solution) was 79 % of control, the T/C (dose: 12.0 mg/kg/injection, schedule: Q01DX011 (sc), vehicle: steriod suspending solution) was 36 % of control and 56 % of control and the T/C (dose: 12.5 mg/kg/injection, schedule: Q01DX011 (sc), vehicle: steriod suspending solution) was 79 % of control. For the same molecule, the T/C (dose: 25.0 mg/kg/injection, schedule: Q01DX011 (sc), vehicle: steriod suspending solution) was 36 % of control and 47 % of control and 58 % of control, the T/C (dose: 50.0 mg/kg/injection, schedule: Q01DX011 (sc), vehicle: steriod suspending solution) was 33 % of control and 39 % of control and the T/C (dose: 51.0 mg/kg/injection, schedule: Q01DX011 (sc), vehicle: steriod suspending solution) was 21 % of control. For the same molecule, the T/C (dose: 75.0 mg/kg/injection, schedule: Q01DX011 (sc), vehicle: steriod suspending solution) was 21 % of control, the T/C (dose: 100.0 mg/kg/injection, schedule: Q01DX011 (sc), vehicle: steriod suspending solution) was 9 % of control and 16 % of control and 22 % of control and the T/C (dose: 200.0 mg/kg/injection, schedule: Q01DX011 (sc), vehicle: steriod suspending solution) was 6 % of control and 14 % of control.
In the case of `C#CCn1cnc2c(Cl)ncnc21`, the T/C (dose: 5.0 mg/kg/injection, schedule: Q01DX011 (ip), vehicle: carboxymethylcellulose (CMC)) is reported as 61 % of control, the T/C [1] is reported as 48 % of control and the T/C [2] is reported as 13 % of control. For the same molecule, the T/C (dose: 35.0 mg/kg/injection, schedule: Q01DX011 (ip), vehicle: carboxymethylcellulose (CMC)) was 14 % of control, the T/C (dose: 50.0 mg/kg/injection, schedule: Q01DX011 (ip), vehicle: carboxymethylcellulose (CMC)) was 8 % of control and the T/C [3] was 3 % of control.
`Nc1nc(Cl)cc(Nc2ccccc2Br)n1` was tested, and the T/C (dose: 15.0 mg/kg/injection, schedule: Q01DX011 (ip), vehicle: methylcellulose (MC)) was 66 % of control, the T/C (dose: 31.0 mg/kg/injection, schedule: Q01DX011 (ip), vehicle: methylcellulose (MC)) was 87 % of control and the T/C (dose: 62.0 mg/kg/injection, schedule: Q01DX011 (ip), vehicle: methylcellulose (MC)) was 88 % of control. The T/C (dose: 125.0 mg/kg/injection, schedule: Q01DX011 (ip), vehicle: methylcellulose (MC)) was 79 % of control and the T/C (dose: 250.0 mg/kg/injection, schedule: Q01DX011 (ip), vehicle: methylcellulose (MC)) was 121 % of control.
In the case of `CCCn1cnc2c(=S)nc[nH]c21`, the T/C (dose: 0.25 mg/kg/injection, schedule: Q01DX011 (ip), vehicle: carboxymethylcellulose (CMC)) is reported as 80 % of control, the T/C (dose: 1.0 mg/kg/injection, schedule: Q01DX011 (ip), vehicle: carboxymethylcellulose (CMC)) is reported as 53 % of control and the T/C (dose: 3.0 mg/kg/injection, schedule: Q01DX011 (ip), vehicle: carboxymethylcellulose (CMC)) is reported as 8 % of control and 11 % of control. For the same molecule, the T/C (dose: 4.0 mg/kg/injection, schedule: Q01DX011 (ip), vehicle: carboxymethylcellulose (CMC)) was 7 % of control, the T/C (dose: 6.25 mg/kg/injection, schedule: Q01DX011 (ip), vehicle: carboxymethylcellulose (CMC)) was 6 % of control and the T/C [4] was 10 % of control. The T/C (dose: 12.5 mg/kg/injection, schedule: Q01DX011 (ip), vehicle: carboxymethylcellulose (CMC)) was 5 % of control, the T/C (dose: 16.0 mg/kg/injection, schedule: Q01DX011 (ip), vehicle: carboxymethylcellulose (CMC)) was 4 % of control and 9 % of control and the T/C [2] was 2 % of control. The T/C (dose: 31.0 mg/kg/injection, schedule: Q01DX011 (ip), vehicle: carboxymethylcellulose (CMC)) was 7 % of control and the T/C (dose: 62.0 mg/kg/injection, schedule: Q01DX011 (ip), vehicle: carboxymethylcellulose (CMC)) was 6 % of control.
`CCCCCCCCSc1ncnc2c1ncn2CC` was tested, and the T/C (dose: 150.0 mg/kg/injection, schedule: Q01DX011 (ip), vehicle: saline) was 58 % of control and the T/C (dose: 300.0 mg/kg/injection, schedule: Q01DX011 (ip), vehicle: saline) was 17 % of control.
`Fc1ccc(CSc2ncnc3c2ncn3C2CCCO2)cc1` (centres undefined) was tested, and the T/C (dose: 4.6 mg/kg/injection, schedule: Q01DX011 (ip), vehicle: methylcellulose (MC)) was 53 % of control, the T/C (dose: 9.3 mg/kg/injection, schedule: Q01DX011 (ip), vehicle: methylcellulose (MC)) was 45 % of control and the T/C (dose: 18.7 mg/kg/injection, schedule: Q01DX011 (ip), vehicle: methylcellulose (MC)) was 10 % of control. For the same molecule, the T/C [5] was 1 % of control and 3 % of control.
`CCCCS(=O)(=O)OCCCCOS(=O)(=O)CCCC` was tested, and the T/C (dose: 45.0 mg/kg/injection, schedule: Q01DX011 (ip), vehicle: carboxymethylcellulose (CMC)) was 108 % of control, the T/C (dose: 90.0 mg/kg/injection, schedule: Q01DX011 (ip), vehicle: carboxymethylcellulose (CMC)) was 51 % of control and the T/C (dose: 180.0 mg/kg/injection, schedule: Q01DX011 (ip), vehicle: carboxymethylcellulose (CMC)) was 41 % of control. The T/C (dose: 360.0 mg/kg/injection, schedule: Q01DX011 (ip), vehicle: carboxymethylcellulose (CMC)) was 16 % of control.
`NS(=O)(=O)c1nc(=S)c2[nH]cnc2[nH]1` was tested, and the T/C [2] was 108 % of control, the T/C (dose: 75.0 mg/kg/injection, schedule: Q01DX011 (ip), vehicle: carboxymethylcellulose (CMC)) was 117 % of control and the T/C (dose: 225.0 mg/kg/injection, schedule: Q01DX011 (ip), vehicle: carboxymethylcellulose (CMC)) was 79 % of control.
With `Cc1ccc(N=S=O)cc1` the T/C (dose: 125.0 mg/kg/injection, schedule: Q01DX011 (ip), vehicle: saline) was 68 % of control.
For `CC(C)Cn1cnc2c(SCc3ccccc3)nc(N)nc21`, the T/C [5] was 62 % of control, the T/C (dose: 75.0 mg/kg/injection, schedule: Q01DX011 (ip), vehicle: methylcellulose (MC)) was 27 % of control and the T/C [6] was 20 % of control. The T/C (dose: 300.0 mg/kg/injection, schedule: Q01DX011 (ip), vehicle: methylcellulose (MC)) was 4 % of control.
In the case of `CC1(c2ccccc2)O[C@@H]2C[C@H]3[C@@H]4CCC5=CC(=O)C=C[C@]5(C)[C@@]4(F)[C@@H](O)C[C@]3(C)[C@]2(C(=O)CO)O1` (some centres undefined), the T/C (dose: 2.75 mg/kg/injection, schedule: Q01DX011 (sc), vehicle: steriod suspending solution) is reported as 42 % of control and 45 % of control, the T/C (dose: 5.5 mg/kg/injection, schedule: Q01DX011 (sc), vehicle: steriod suspending solution) is reported as 14 % of control and 24 % of control and the T/C (dose: 11.0 mg/kg/injection, schedule: Q01DX011 (sc), vehicle: steriod suspending solution) is reported as 2 % of control and 24 % of control.
With `CC(C)Cn1cnc2c(SCc3ccccc3F)nc(N)nc21` the T/C (dose: 18.75 mg/kg/injection, schedule: Q01DX011 (ip), vehicle: methylcellulose (MC)) was 80 % of control, the T/C [5] was 65 % of control and the T/C [6] was 28 % of control.
For `NC(=O)c1ccccc1Nc1ccc([N+](=O)[O-])cc1[N+](=O)[O-]`, the T/C (dose: 34.0 mg/kg/injection, schedule: Q01DX011 (ip), vehicle: carboxymethylcellulose (CMC)) was 102 % of control and the T/C [3] was 115 % of control.
In the case of `CNS(=O)(=O)c1ncnc2nc[nH]c12`, the T/C (dose: 3.1 mg/kg/injection, schedule: Q01DX011 (ip), vehicle: methylcellulose (MC)) is reported as 77 % of control, the T/C (dose: 6.2 mg/kg/injection, schedule: Q01DX011 (ip), vehicle: methylcellulose (MC)) is reported as 36 % of control and the T/C [4] is reported as 51 % of control. The T/C (dose: 10.0 mg/kg/injection, schedule: Q01DX011 (ip), vehicle: carboxymethylcellulose (CMC)) was 20 % of control, the T/C (dose: 12.5 mg/kg/injection, schedule: Q01DX011 (ip), vehicle: methylcellulose (MC)) was 44 % of control and the T/C [1] was 28 % of control. The T/C (dose: 20.0 mg/kg/injection, schedule: Q01DX011 (ip), vehicle: carboxymethylcellulose (CMC)) was 2 % of control, the T/C (dose: 25.0 mg/kg/injection, schedule: Q01DX011 (ip), vehicle: methylcellulose (MC)) was 5 % of control and the T/C (dose: 30.0 mg/kg/injection, schedule: Q01DX011 (ip), vehicle: carboxymethylcellulose (CMC)) was 16 % of control. For the same molecule, the T/C (dose: 40.0 mg/kg/injection, schedule: Q01DX011 (ip), vehicle: carboxymethylcellulose (CMC)) was 2 % of control.
In the case of `CN(C)[C@@H]1C(=O)C(C(=O)NCN(CCCl)CCCl)=C(O)[C@@]2(O)C(=O)C3=C(O)c4c(O)cccc4[C@@](C)(O)[C@H]3C[C@@H]12`, the T/C (dose: 0.5 mg/kg/injection, schedule: Q01DX011 (ip), vehicle: methylcellulose (MC)) is reported as 111 % of control, the T/C (dose: 5.0 mg/kg/injection, schedule: Q01DX011 (ip), vehicle: methylcellulose (MC)) is reported as 98 % of control and the T/C (dose: 10.0 mg/kg/injection, schedule: Q01DX011 (ip), vehicle: methylcellulose (MC)) is reported as 44 % of control. The T/C (dose: 15.0 mg/kg/injection, schedule: Q01DX011 (ip), vehicle: saline) was 37 % of control and 60 % of control, the T/C (dose: 20.0 mg/kg/injection, schedule: Q01DX011 (ip), vehicle: methylcellulose (MC)) was 35 % of control and the T/C (dose: 60.0 mg/kg/injection, schedule: Q01DX011 (ip), vehicle: saline) was 36 % of control.
For `S=c1nc[nH]c2c1ncn2C1CCCCCC1`, the T/C (dose: 125.0 mg/kg/injection, schedule: Q01DX011 (ip), vehicle: carboxymethylcellulose (CMC)) was 65 % of control, the T/C (dose: 250.0 mg/kg/injection, schedule: Q01DX011 (ip), vehicle: carboxymethylcellulose (CMC)) was 88 % of control and the T/C (dose: 500.0 mg/kg/injection, schedule: Q01DX011 (ip), vehicle: carboxymethylcellulose (CMC)) was 87 % of control.
